Test results from patent US20130109738A1, “Control of Cardiac Growth, Differentiation and Hypertrophy” (The Board of Trustees of the Leland Stanford Junior …, priority 2010, published 2013).
“Also recorded” adds a separate entry of the source.

Assays:
β-MHC promoter = experiment: Luciferase reporter assay of β-MHC promoter activity in SW13 cells; type: cell-based, human
Description: (§1) Cloning and Luciferase Reporter Assay Full length as well as serially truncated versions of intergenic α-MHC and β-MHC promoters were cloned into pREP4-Luc reporter plasmid, as detailed in the supplementary method. The constructs were transfected into SW13 cells with lipofectamine 2000 (Invitrogen, Calif.) along with pREP7-RL as a transfection efficiency control and Brg1 expression vector with the appropriate empty vector control. Luciferase activity was measured and normalized to that of Renilla luciferase construct using the Dual-Luciferase Reporter System (Promega, Wis.).
(§2) Cloning and Luciferase Reporter Assay Specific truncations for the reporter constructs are as follows: for α-MHC promoter, full length promoter spans from 4243 by upstream and 192 by downstream of the transcription start site (−4243, +192), serially truncated versions span (−2537, +192), (−1802, +192), and (−462, +192). Likewise, β-MHC promoters span (−3561, +222), (−1770, +222), and (−835, +222).

[1] = system: α-MHC and β-MHC expression in cardiac ventricles; experiment: Quantitative RT-PCR of ventricular α-MHC and β-MHC in cultured whole embryos; set-up: species or system mouse
Description: (§3) Whole embryo culture Embryos ([…]) with intact yolk sacs were isolated and incubated in 1 ml culture medium containing 97% rat serum (Harlan Biosciences, Cincinnati, Ohio), 2 mg glucose, 100 U penicillin G and 100 μg streptomycin that was rotated slowly at […] and gassed periodically (every 8 hours) with 20% oxygen, 5% carbon dioxide, 75% nitrogen from E8.75 to E9.5, and 70% oxygen, 5% carbon dioxide and 25% nitrogen from E9.5 to E10.5. BMP10 (10 nM, RD Systems, Minneapolis, Minn.), BSA (125 ng/ml), TSA (100-500 nM, Sigma-Aldrich, St. Louis, Mo.), PJ-34 (20 uM, Alexis Corporation, San Diego)), BrdU (30_g/mL, Simga-Aldrich) or DMSO was added directly to the culture medium or during the last six hours for BrdU. Embryos were harvested 36-48 hours later for analysis.
Quantitative RT-PCR analysis. Quantitative RT-PCR analyses were performed as described previously to examine gene expressions in the cardiac ventricles of E10.5/E11.5 embryonic hearts and adult hearts. The following primer sequences were used: Murine MHO, 5′ primer […], 3′ primer […]. Murine β-MHC, 5″ primer […], 3′ primer […]. Murine HPRT, 5′ primer GCTGGTGAAAAGGACCTCT, 3′ primer […]. Murine Brg1, 5″ primer […], 3′ primer […]. Human H3F3A, 5′ primer […], 3′ primer […]. Human Brg1, 5′ primer […], 3′ primer […]. Human α-MHC and β-MHC were by Taqman probes (Applied Biosciences, Foster City, Calif.. RT-PCR reactions were performed using SYBR green master mix (BioRad, Hercules, Calif.) or Taqman reagents (Applied Biosciences), and the primer sets were tested to be quantitative. Threshold cycles and melting curve measurements were performed with software.

α-MHC promoter = experiment: Luciferase reporter assay of α-MHC promoter activity in SW13 cells; type: cell-based, human
Description: as §1, §2

embryos = experiment: Gross morphology of cultured whole embryos; set-up: species or system mouse; settings: whole embryos cultured from E9 to E10, compared to littermates treated with DMSO
Description: as §3

[2] = system: myocardial proliferation in cultured embryos; experiment: Myocardial BrdU incorporation in whole embryo culture; set-up: species or system mouse
Description: Quantitative analysis of myocardial development H&E-stained 7 μm paraffin sections were used for the morphometric analysis of the compact and trabecular myocardium. The following parameters were measured: thickness of compact 4 myocardium, number of trabeculi directly connected to compact myocardium, and trabecular area normalized to ventricular size. BrdU-stained sections were used to count the number of BrdU-positive cells per area of myocardium or per number of cells in the endocardium or endocardial cushions. All quantification and scale measurement were performed using NIS-Elements software (Nikon).
as §3
Proliferation and apoptosis analysis. Pregnant mice were injected with BrdU (Sigma, 100 μg/ml, intraperitoneal injection) for 6 hours prior to embryo isolation at E10.5 or E11.5. Incorporated BrdU was stained in the tissue-section of the heart according to manufacturer's protocol (Zymed Laboratories, South San Francisco, Calif.). Apoptosis of embryos were analyzed by TUNEL staining using a kit (Roche, Applied Science, Indianapolis, Ind.).

[3] = whole embryos cultured from E9 to E10, vs DMSO

CN(C)CC(=O)Nc1ccc2[nH]c(=O)c3ccccc3c2c1 [PJ-34]
effect on Brg1-mediated β-MHC activation (β-MHC promoter; SW13 cells, PARP1 inhibition): reduced
MHC switch in cultured embryos ([1]; embryos cultured from E9 to E10, PJ-34 20 uM): exhibited α- and β-MHC switches; also recorded: causes MHC switch from β-MHC to α-MHC
effect on Brg1-mediated α-MHC repression (α-MHC promoter; SW13 cells, PARP1 inhibition): reduced

CC(/C=C/C(=O)NO)=C\[C@@H](C)C(=O)c1ccc(N(C)C)cc1 [TSA, trichostatin A]
effect on Brg1-induced β-MHC promoter activation (β-MHC promoter; SW13 cells transfected with Brg1-expressing plasmid): no significant impact
reduction of β-MHC promoter activity (β-MHC promoter; SW13 cells, basal activity without Brg1): 55%
gross morphology of treated embryos (embryos): grossly normal
increase in α/β MHC ratio [1, 3]: 3.5 folds
α-MHC expression [1, 3]: significantly up-regulated
β-MHC expression [1, 3]: down-regulated
effect on BAF-mediated repression of α-MHC reporter (α-MHC promoter; SW13 cells transfected with Brg1 expression vector): reversed the BAF-mediated repression of α-MHC
myocardial proliferation (BrdU incorporation) ([2]; wildtype embryos cultured from E8.75 to E10.5, BrdU last six hours, vs DMSO): normal

B1: BMP10: BMP10 protein (10 nM, RD Systems) required for the proliferation of myocardial cells (protein, UniProt O95393 317-424, looked up)
Bone morphogenetic protein 10: NAKGNYCKRTPLYIDFKEIGWDSWIIAPPGYEAYECRGVCNYPLAEHLTPTKHAIIQALVHLKNSQKASKACCVPTKLEPISILYLDKGVVTYKFKYEGMAVSECGCR
effect on premature MHC differentiation (α-MHC over-, β-MHC under-expression) ([1]; cultured Sm22αCre;Brg1F/F embryos, BMP10 vs BSA): failed to reverse the premature MHC differentiation
increase of BrdU incorporation ([2]; Sm22αCre;Brg1F/F embryos cultured from E8.75 for 42 to 48 hours, BMP10 10 nM): 2.6 folds
BrdU incorporation restored to (relative to control embryos) ([2]; Sm22αCre;Brg1F/F embryos cultured from E8.75 for 42 to 48 hours, BMP10 10 nM, untreated mutant 33+/−12%): 85+/−10%
